Source: PMC6832696 (Viruses, 2019)
Read-outs that look alike come from different tables or passages of the source.

Columns and labels:
HIV-1 [1] = conditions: HIV-1, TZM-bl cells, 24 h
HIV-1 [2] = experiment: microbe, parasite or virus in culture; conditions: Human immunodeficiency virus 1, TZM-bl, 24 h, read-out: EC50-2 (reporter protein expression)
[3] = Toxicity in TZM-bl cells, Cell Tox Green (CTxG) assay (CC50); conditions: human, mock-infected TZM-bl cells
RVFV = experiment: microbe, parasite or virus in culture; format: cell-based; conditions: Rift Valley fever virus, RPE, 24 h, read-out: EC50-1 (CTG assay)
FLUAV = experiment: microbe, parasite or virus in culture; format: cell-based; conditions: Influenza A virus, RPE, 24 h, read-out: EC50-1 (CTG assay)
HSV-2 [4] = experiment: HSV-2 production in RPE cells, plaque assay on A549-Npro cells; format: cell-based, herpes simplex virus type 2; conditions: 0.12 μM obatoclax, 0.04 μM emetine, 0.37 μM niclosamide, 0.37 μM ganciclovir; titrated on A549-Npro cells
EV1 [5] = experiment: EV1 production in RPE cells, plaque assay on A549-Npro cells; format: cell-based, echovirus 1; conditions: obatoclax 0.37 μM, emetine 0.12 μM, homoharringtonine 0.12 μM; titrated on A549-Npro cells
HSV-2 [6] = test system: HSV-2
EV1 [7] = test system: EV1
RVFV-RFP [8] = conditions: RPE cells, fluorescent microscopy and CTG assay
HMPV-GFP [9] = test system: HMPV-GFP
FLUAV-GFP [10] = test system: FLUAV-GFP
in vitro = conditions: human
HSV-2 [11] = experiment: microbe, parasite or virus in culture; conditions: Human alphaherpesvirus 2, RPE, 72 h, read-out: EC50-1 (CTG assay)
EV1 [12] = experiment: microbe, parasite or virus in culture; conditions: Enterovirus B, RPE, 48 h, read-out: EC50-1 (CTG assay)
RVFV-RFP [13] = experiment: microbe, parasite or virus in culture; conditions: Rift Valley fever virus, RPE, 24 h, read-out: EC50-2 (reporter protein expression)
HMPV-GFP [14] = experiment: microbe, parasite or virus in culture; conditions: human metapneumovirus, RPE, 96 h, read-out: EC50-2 (reporter protein expression)
FLUAV-GFP [15] = experiment: microbe, parasite or virus in culture; conditions: Influenza A virus, RPE, 24 h, read-out: EC50-2 (reporter protein expression)
FLUAV-GFP [16] = experiment: microbe, parasite or virus in culture; conditions: Influenza A virus, RPE, read-out: Viability of FLUAV-GFP-infected cells (%)
[17] = Drug combination experiment: viability of mock-infected RPE cells (CTG); conditions: human

Cc1c(-c2ccc(-c3ccccc3F)cc2)nc2ccc(F)cc2c1C(=O)O [Brequinar]
SI (CC50/EC50) (HIV-1 [1]): >750 | SI (CC50/EC50) (HIV-1 [1]; listed as brequinar): > 750 | EC50 (HIV-1 [2]): 40 ± 10 nM | CC50 at 24 h [3]: > 30000 nM

CC[C@H]1CN2CCc3cc(OC)c(OC)cc3[C@@H]2C[C@@H]1C[C@H]1NCCc2cc(OC)c(OC)cc21 [Emetine]
EC50 (RVFV): 100 ± 20 nM | EC50 (FLUAV): 130 ± 50 nM | HSV-2 production in RPE cells (plaque assay) (HSV-2 [4]): lowered the production of HSV-2 | EV1 production in RPE cells (plaque assay) (EV1 [5]): lowered the production of EV1 | Initial screening: rescue of HSV-2-infected cells (HSV-2 [6]): rescued cells from virus-mediated death | SI (CC50/EC50) (HSV-2 [6]): 37 | Initial screening: rescue of EV1-infected cells (EV1 [7]): rescued cells from virus-mediated death | RVFV-mediated RFP expression (RVFV-RFP [8]): inhibited RVFV-mediated RFP expression at non-cytotoxic concentrations | Initial screening: HMPV-mediated GFP expression (HMPV-GFP [9]): lowered GFP expression without detectable cytotoxicity | SI (CC50/EC50) (HMPV-GFP [9]): 10 | Initial screening: FLUAV-mediated GFP expression (FLUAV-GFP [10]): lowered GFP expression without detectable cytotoxicity | CC50 (in vitro): > 30000 nM | EC50 (HSV-2 [11]): 30 ± 10 nM | EC50 (EV1 [12]): 120 ± 40 nM | EC50 (RVFV-RFP [13]): 430 ± 100 nM | EC50 (HMPV-GFP [14]): 140 ± 50 nM | EC50 (FLUAV-GFP [15]): 120 ± 30 nM | viability at 0.01 µM (FLUAV-GFP [16]): 50% | viability at 0.02 µM (FLUAV-GFP [16]): 51% | viability at 0.05 µM (FLUAV-GFP [16]): 66% | viability at 0.15 µM (FLUAV-GFP [16]): 68% | viability at 0.44 µM (FLUAV-GFP [16]): 76% | viability at 24 h, 0.01 μM [17]: 72% | viability at 24 h, 0.02 μM [17]: 80% | viability at 24 h, 0.05 μM [17]: 76% | viability at 24 h, 0.15 μM [17]: 76% | viability at 24 h, 0.44 μM [17]: 80%

Nc1nc(O)c2ncn(COC(CO)CO)c2n1 [Ganciclovir]
HSV-2 production in RPE cells (plaque assay) (HSV-2 [4]): lowered the production of HSV-2 | Initial screening: rescue of HSV-2-infected cells (HSV-2 [6]): rescued cells from virus-mediated death | CC50 (in vitro): > 30000 nM | EC50 (HSV-2 [11]): 40 ± 10 nM

COC(=O)C[C@](O)(CCCC(C)(C)O)C(=O)O[C@@H]1C(OC)=C[C@]23CCCN2CCc2cc4c(cc2[C@H]13)OCO4 [Homoharringtonine]
EV1 production in RPE cells (plaque assay) (EV1 [5]): lowered the production of EV1 | Initial screening: rescue of EV1-infected cells (EV1 [7]): rescued cells from virus-mediated death | CC50 (in vitro): > 30000 nM | EC50 (EV1 [12]): 140 ± 30 nM

O=C(Nc1ccc([N+](=O)[O-])cc1Cl)c1cc(Cl)ccc1O [Niclosamide]
HSV-2 production in RPE cells (plaque assay) (HSV-2 [4]): lowered the production of HSV-2 | Initial screening: rescue of HSV-2-infected cells (HSV-2 [6]): rescued cells from virus-mediated death | SI (CC50/EC50) (HSV-2 [6]): 3 | CC50 (in vitro): 1310 ± 20 nM | EC50 (HSV-2 [11]): 430 ± 40 nM

COC1=CC(c2cc3ccccc3[nH]2)=N/C1=C\c1[nH]c(C)cc1C [Obatoclax]
EC50 (RVFV): 40 ± 10 nM | EC50 (FLUAV): 40 ± 10 nM | HSV-2 production in RPE cells (plaque assay) (HSV-2 [4]): lowered the production of HSV-2 | EV1 production in RPE cells (plaque assay) (EV1 [5]): lowered the production of EV1 | Initial screening: rescue of HSV-2-infected cells (HSV-2 [6]): rescued cells from virus-mediated death | SI (CC50/EC50) (HSV-2 [6]): 12 | Initial screening: rescue of EV1-infected cells (EV1 [7]): rescued cells from virus-mediated death | SI (CC50/EC50) (EV1 [7]): 25 | RVFV-mediated RFP expression (RVFV-RFP [8]): inhibited RVFV-mediated RFP expression at non-cytotoxic concentrations | Initial screening: HMPV-mediated GFP expression (HMPV-GFP [9]): lowered GFP expression without detectable cytotoxicity | Initial screening: FLUAV-mediated GFP expression (FLUAV-GFP [10]): lowered GFP expression without detectable cytotoxicity | SI (CC50/EC50) (FLUAV-GFP [10]): 31 | EC50 (HSV-2 [11]): 100 ± 20 nM | EC50 (EV1 [12]): 120 ± 10 nM | EC50 (RVFV-RFP [13]): 320 ± 90 nM | EC50 (HMPV-GFP [14]): 120 ± 20 nM | EC50 (FLUAV-GFP [15]): 100 ± 10 nM | viability at 0.01 µM (FLUAV-GFP [16]): 60% | viability at 0.02 µM (FLUAV-GFP [16]): 72% | viability at 0.05 µM (FLUAV-GFP [16]): 80% | viability at 0.15 µM (FLUAV-GFP [16]): 90% | viability at 0.44 µM (FLUAV-GFP [16]): 76% | viability at 24 h, 0.01 μM [17]: 81% | viability at 24 h, 0.02 μM [17]: 77% | viability at 24 h, 0.05 μM [17]: 78% | viability at 24 h, 0.15 μM [17]: 81% | viability at 24 h, 0.44 μM [17]: 77%

Cc1ccc(C(=O)Nc2ccc(S(=O)(=O)O)c3cc(S(=O)(=O)O)cc(S(=O)(=O)O)c23)cc1NC(=O)c1cccc(NC(=O)Nc2cccc(C(=O)Nc3cc(C(=O)Nc4ccc(S(=O)(=O)O)c5cc(S(=O)(=O)O)cc(S(=O)(=O)O)c45)ccc3C)c2)c1 [Suramin]
SI (CC50/EC50) (HIV-1 [1]): >375 | SI (CC50/EC50) (HIV-1 [1]; listed as suramin): > 375 | EC50 (HIV-1 [2]): 80 ± 30 nM | CC50 at 24 h [3]: > 30000 nM
